Experimental data as given in patent publication US11571430B2, “Platinum(II) ammine selenourea complexes and methods of treating cancer” (KING FAHD UNIVERSITY OF PETROLEUM AND MINERALS, priority 2020, dated 2023).
Entries after “also recorded” stand apart in the source; their conditions may differ.

Legend:
Assay type in all cases: cell-based, human
[1] = tested on: A549 (lung cancer cells); assay: In vitro cytotoxicity, MTT assay, A549; settings: for IC50: 72 h incubation, A549 lung cancer cells, read-out: IC50 values against A549; for in vitro cytotoxicity in words, A549: A549, compared to cisplatin
Procedure: (§1) The solutions of Pt(II) complexes 1-5 and cisplatin (classical standard control) with 1.0 μM, 5.0 μM, 10.0 μM, 25.0 μM, 50.0 μM and 100.0 μM concentrations were prepared in DMEM. The cancer cells, HeLa (cervical cancer), A549 (Lung cancer) and HCT-116 (colon cancer) were seeded and maintained in quadruplicate in a 96-well tissue culture plate at 5×10^4 cells per well in 200 μL of the same medium. The cancer cells were incubated for 24 hours before the treatment. All compounds were dissolved in 50 vol % DMSO (50/50 v/v DMSO/DMEM). Therefore, DMSO was used as a negative control. The final DMSO concentration in each well, was less than 0.1%. The cancer cells were treated with the synthesized complexes (1-5) along with cisplatin and the resultant cultures were incubated for 72 h. The medium of wells was discarded and 100 μL DMEM containing MTT (3-(4,5-dimethylthiazol-2-yl)-2,5-diphenyltetrazolium bromide) (5 mg/mL) was added to the wells and incubated in a CO2 incubator at 37° C. in the dark for 4 hrs. After incubation, a purple colored formazan (artificial chromogenic dye, a product of the reduction of water insoluble tetrazolium salts e.g., MTT by dehydrogenases and reductases) in the cells is produced and appeared as dark crystals in the bottom of the wells. The medium of culture was discarded from each well carefully to avoid disruption of the monolayer. 100 μL of isopropanol was added in each well. The solution was thoroughly mixed in the wells to dissolve the formazan crystals which ultimately results into a purple solution. The absorbance of the 96-well plate was taken at 570 nm with Mithras 2LB943 against reagent blank.
(§2) The in vitro cytotoxicity of the prepared compounds (1-5) and cisplatin in DMSO was examined by the MTT assay against three human cancer cells namely, HeLa (cervical cancer cells), A549 (lung cancer cells) and HCT-116 (colon cancer cells). The survival of the cells as a function of concentration of compounds 1-5 (and compared to cisplatin) is shown in FIGS. 1A-1F, 2, 3A-3F, 4, 5A-5F, and 6. […] See Altoum A O S, Alhoshani A, Alhosaini K, et al (2017a) Synthesis, characterization and in vitro cytotoxicity of platinum(II) complexes of selenones [Pt(selenone)2Cl2]. J Coord Chem 70:1020-1031; Altoum A O S, Vančo J, Křikavová R, et al (2017b) Synthesis, structural characterization and cytotoxicity evaluation of platinum(II) complexes of heterocyclic selenones. Polyhedron 128:2-8; Ahmad S, Altoum A O S, Vančo J, et al (2018) Synthesis, crystal structure and anticancer activity of tetrakis(N-isopropylimidazolidine-2-selenone)platinum(II) chloride. J Mol Struct 1152:232-236; and Alhoshani A, Seliman A A A, Altoum A O, et al (2019) Synthesis, X-ray structure and in vitro cytotoxicity of trans-diammineplatinum(II) complexes of selenones, trans-[Pt(NH3)2(selenone)2](NO3)2. Polyhedron 158:234-240, each incorporated herein by reference in their entirety.

[2] = tested on: HeLa (cervical cancer cells); assay: In vitro cytotoxicity, MTT assay, HeLa; settings: for IC50: 72 h incubation, HeLa cervical cancer cells, read-out: IC50 values against HeLa; for in vitro cytotoxicity in words, HeLa: compared to cisplatin
Procedure: as §1, §2

[3] = tested on: HCT-116 (colon cancer cells); assay: In vitro cytotoxicity, MTT assay, HCT-116; settings: for IC50: 72 h incubation, HCT-116 colon cancer cells, read-out: IC50 values against HCT-116; for in vitro cytotoxicity in words, HCT-116: HCT-116, compared to cisplatin
Procedure: as §1, §2

SMILES	IC50 [1]	IC50 [2]	IC50 [3]	in vitro cytotoxicity in words, A549 [1]	in vitro cytotoxicity in words, HeLa [2]	in vitro cytotoxicity in words, HCT-116 [3]
N.N.[Cl][Pt][Cl] [Cisplatin, cis-diamminedichloridoplatinum(II), reference compound]	12.5 µM	8.1 µM	> 100 µM			
N.N.NC(N)=[Se][Pt+2][Se]=C(N)N.O=[N+]([O-])[O-].O=[N+]([O-])[O-] [Complex 1, [Pt(NH3)2(Seu)2](NO3)2]	> 100 µM	> 100 µM	5.4 µM	no activity	no activity	has activity against HCT-116 only; also recorded: excellent cytotoxic activity
CNC(NC)=[Se][Pt+2][Se]=C(NC)NC.N.N.O=[N+]([O-])[O-].O=[N+]([O-])[O-] [Complex 2, [Pt(NH3)2(Me2Seu)2](NO3)2]	54 µM	12.2 µM	> 100 µM	almost inactive	cytotoxicity comparable to cisplatin	almost inactive
C1CNC(=[Se][Pt+2][Se]=C2NCCCN2)NC1.N.N.O=[N+]([O-])[O-].O=[N+]([O-])[O-] [Complex 4, [Pt(NH3)2(DiazSe)2](NO3)2]	6.74 µM	3.7 µM	7.7 µM	cytotoxicity higher than cisplatin; also recorded: excellent cytotoxic activity	cytotoxicity higher than cisplatin; also recorded: excellent cytotoxic activity	cytotoxicity higher than cisplatin; also recorded: excellent cytotoxic activity
C1CCNC(=[Se][Pt+2][Se]=C2NCCCCN2)NC1.N.N.O=[N+]([O-])[O-].O=[N+]([O-])[O-] [Complex 5, [Pt(NH3)2(DiapSe)2](NO3)2]	> 100 µM	> 100 µM	> 100 µM	ineffective	ineffective	ineffective
